Data: PubChem BioAssay (NCI)
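At the GI50, growth is halved. TGI: concentration producing complete growth inhibition.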

Experiments:
Test in all cases: NCI anticancer screen, dose series, 384-well format
MDA-MB-231 breast = test system: MDA-MB-231 breast
SNB-75 CNS = test system: SNB-75 CNS
COLO 205 colon = test system: COLO 205 colon
LOX IMVI melanoma = test system: LOX IMVI melanoma
PC-3 prostate = test system: PC-3 prostate
MCF7 breast = test system: MCF7 breast
MDA-MB-468 breast = test system: MDA-MB-468 breast
SNB-19 CNS = test system: SNB-19 CNS
UACC-257 melanoma = test system: UACC-257 melanoma
SW-620 colon = test system: SW-620 colon
NCI/ADR-RES ovarian = test system: NCI/ADR-RES ovarian
CAKI-1 renal = test system: CAKI-1 renal
NCI-H460 NSCLC = test system: NCI-H460 NSCLC
EKVX NSCLC = test system: EKVX NSCLC
MALME-3M melanoma = test system: MALME-3M melanoma
RPMI-8226 leukemia = test system: RPMI-8226 leukemia
SF-268 CNS = test system: SF-268 CNS
IGROV1 ovarian = test system: IGROV1 ovarian
HCT-15 colon = test system: HCT-15 colon
SN12C renal = test system: SN12C renal
OVCAR-5 ovarian = test system: OVCAR-5 ovarian
HT29 colon = test system: HT29 colon
A549 NSCLC = test system: A549 NSCLC
KM12 colon = test system: KM12 colon
U251 glioblastoma = test system: U251 glioblastoma
BT-549 breast = test system: BT-549 breast
NCI-H522 lung = test system: NCI-H522 lung
NCI-H226 lung = test system: NCI-H226 lung
T-47D breast = test system: T-47D breast
UO-31 renal = test system: UO-31 renal
SK-OV-3 ovarian = test system: SK-OV-3 ovarian
M14 melanoma = test system: M14 melanoma
HL-60(TB) leukemia = test system: HL-60(TB) leukemia
HS 578T breast = test system: HS 578T breast
MOLT-4 leukemia = test system: MOLT-4 leukemia
TK-10 renal = test system: TK-10 renal
HOP-92 NSCLC = test system: HOP-92 NSCLC
OVCAR-4 ovarian = test system: OVCAR-4 ovarian
786-0 renal = test system: 786-0 renal
HCT-116 colon = test system: HCT-116 colon
SF-295 CNS = test system: SF-295 CNS
OVCAR-8 ovarian = test system: OVCAR-8 ovarian
DU-145 prostate = test system: DU-145 prostate
ACHN renal = test system: ACHN renal
NCI-H23 lung = test system: NCI-H23 lung
SF-539 CNS = test system: SF-539 CNS
SK-MEL-5 melanoma = test system: SK-MEL-5 melanoma
SR leukemia = test system: SR leukemia
MDA-MB-435 melanoma = test system: MDA-MB-435 melanoma
HCC-2998 colon = test system: HCC-2998 colon
A498 renal = test system: A498 renal
HOP-62 NSCLC = test system: HOP-62 NSCLC
SK-MEL-28 melanoma = test system: SK-MEL-28 melanoma
CCRF-CEM leukemia = test system: CCRF-CEM leukemia
NCI-H322M lung = test system: NCI-H322M lung
OVCAR-3 ovarian = test system: OVCAR-3 ovarian
K-562 leukemia = test system: K-562 leukemia
RXF 393 renal = test system: RXF 393 renal

## COc1cccc(OCCCN)c1-c1cc(Nc2cnc(C#N)cn2)n[nH]1
MDA-MB-231 breast
  GI50: 0.0353 µM
  TGI: 5.25 µM
SNB-75 CNS
  GI50: 0.0171 µM
  TGI: 0.49 µM
COLO 205 colon
  GI50: 0.0169 µM
  TGI: 0.133 µM
LOX IMVI melanoma
  GI50: 0.0234 µM
  TGI: 0.847 µM
PC-3 prostate
  GI50: 0.0559 µM
  TGI: 13.2 µM
MCF7 breast
  TGI: 13.3 µM
MDA-MB-468 breast
  TGI: 0.0116 µM
SNB-19 CNS
  TGI: 0.122 µM
UACC-257 melanoma
  GI50: 0.0181 µM
  TGI: 0.0814 µM
SW-620 colon
  GI50: 0.0715 µM
  TGI: 2.29 µM
NCI/ADR-RES ovarian
  GI50: 0.016 µM
  TGI: 0.0596 µM
CAKI-1 renal
  GI50: 0.0354 µM
  TGI: 2.62 µM
NCI-H460 NSCLC
  GI50: 0.0209 µM
  TGI: 0.121 µM
EKVX NSCLC
  TGI: 12.7 µM
MALME-3M melanoma
  TGI: 0.0349 µM
RPMI-8226 leukemia
  TGI: 0.0278 µM
SF-268 CNS
  GI50: 0.0249 µM
  TGI: 6.59 µM
IGROV1 ovarian
  TGI: 1.27 µM
HCT-15 colon
  GI50: 0.0121 µM
  TGI: 0.0288 µM
SN12C renal
  GI50: 0.0396 µM
  TGI: 0.761 µM
OVCAR-5 ovarian
  TGI: 0.017 µM
HT29 colon
  GI50: 0.0199 µM
  TGI: 0.145 µM
A549 NSCLC
  TGI: 14.2 µM
KM12 colon
  TGI: 0.0867 µM
U251 glioblastoma
  GI50: 0.0255 µM
  TGI: 11.9 µM
BT-549 breast
  TGI: 0.0242 µM
NCI-H522 lung
  GI50: 0.0352 µM
  TGI: 0.833 µM
NCI-H226 lung
  GI50: 5.36 µM
  TGI: 18.8 µM
T-47D breast
  GI50: 1.83 µM
  TGI: 18.3 µM
UO-31 renal
  TGI: 16.3 µM

## CC1(O)CC(c2nc(-c3ccc4ccc(-c5ccccc5)nc4c3)c3c(N)nccn23)C1 (centres undefined)
SK-OV-3 ovarian
  GI50: 8.99 µM
  TGI: 21 µM
M14 melanoma
  GI50: 10.5 µM
  TGI: 22.4 µM
HL-60(TB) leukemia
  GI50: 0.0517 µM
  TGI: 1.61 µM
MDA-MB-231 breast
  GI50: 5.42 µM
  TGI: 18.9 µM
SNB-75 CNS
  GI50: 10.3 µM
  TGI: 22 µM
COLO 205 colon
  GI50: 0.209 µM
  TGI: 11.3 µM
HS 578T breast
  GI50: 9.96 µM
  TGI: 21.6 µM
MOLT-4 leukemia
  GI50: 2.89 µM
  TGI: 10.4 µM
TK-10 renal
  GI50: 6.58 µM
  TGI: 19.3 µM
HOP-92 NSCLC
  GI50: 2.73 µM
  TGI: 15.3 µM
LOX IMVI melanoma
  GI50: 11.1 µM
  TGI: 23.2 µM
OVCAR-4 ovarian
  GI50: 10.3 µM
  TGI: 22.5 µM
786-0 renal
  GI50: 12.5 µM
  TGI: 25.1 µM
HCT-116 colon
  GI50: 7.55 µM
  TGI: 20.7 µM
PC-3 prostate
  GI50: 10 µM
  TGI: 22.8 µM
MCF7 breast
  GI50: 0.182 µM
  TGI: 13.4 µM
MDA-MB-468 breast
  GI50: 1.9 µM
  TGI: 6.36 µM
SNB-19 CNS
  GI50: 13 µM
  TGI: 25.9 µM
SF-295 CNS
  GI50: 12.9 µM
  TGI: 25.6 µM
UACC-257 melanoma
  GI50: 10.7 µM
  TGI: 22.5 µM
OVCAR-8 ovarian
  GI50: 10.2 µM
  TGI: 22 µM
SW-620 colon
  GI50: 3.85 µM
  TGI: 17.9 µM
NCI/ADR-RES ovarian
  GI50: 5.47 µM
  TGI: 18.7 µM
CAKI-1 renal
  GI50: 5.36 µM
  TGI: 18.3 µM
DU-145 prostate
  GI50: 5.74 µM
  TGI: 20.3 µM
ACHN renal
  GI50: 5.3 µM
  TGI: 22.4 µM
NCI-H23 lung
  GI50: 2.17 µM
  TGI: 14.9 µM
NCI-H460 NSCLC
  GI50: 2.79 µM
  TGI: 15.5 µM
EKVX NSCLC
  GI50: 2.74 µM
  TGI: 16.9 µM
MALME-3M melanoma
  GI50: 2.76 µM
  TGI: 12.3 µM
RPMI-8226 leukemia
  GI50: 1.32 µM
  TGI: 4.12 µM
SF-268 CNS
  GI50: 10.8 µM
  TGI: 22.9 µM
SF-539 CNS
  GI50: 13 µM
  TGI: 25.8 µM
IGROV1 ovarian
  GI50: 10.7 µM
  TGI: 24.1 µM
HCT-15 colon
  GI50: 3.09 µM
  TGI: 14.6 µM
SN12C renal
  GI50: 12.8 µM
  TGI: 25.6 µM
SK-MEL-5 melanoma
  GI50: 2.43 µM
  TGI: 12 µM
SR leukemia
  GI50: 10.2 µM
  TGI: 21.8 µM
OVCAR-5 ovarian
  GI50: 12.7 µM
  TGI: 25.9 µM
MDA-MB-435 melanoma
  GI50: 7.98 µM
  TGI: 20.8 µM
HCC-2998 colon
  GI50: 8.12 µM
  TGI: 20.7 µM
HT29 colon
  GI50: 0.306 µM
  TGI: 16 µM
A549 NSCLC
  GI50: 10.3 µM
  TGI: 23.3 µM
A498 renal
  GI50: 6.67 µM
  TGI: 19 µM
KM12 colon
  GI50: 3.97 µM
  TGI: 13.8 µM
HOP-62 NSCLC
  GI50: 7.05 µM
  TGI: 20.3 µM
U251 glioblastoma
  GI50: 13 µM
  TGI: 25.8 µM
SK-MEL-28 melanoma
  GI50: 13.8 µM
  TGI: 26.7 µM
CCRF-CEM leukemia
  GI50: 5.63 µM
  TGI: 17.9 µM
BT-549 breast
  GI50: 5.8 µM
  TGI: 18.2 µM
NCI-H322M lung
  GI50: 4.22 µM
  TGI: 17.4 µM
NCI-H522 lung
  GI50: 5.74 µM
  TGI: 19 µM
OVCAR-3 ovarian
  GI50: 10.5 µM
  TGI: 22.4 µM
K-562 leukemia
  GI50: 7.3 µM
  TGI: 20.5 µM
NCI-H226 lung
  GI50: 2.86 µM
  TGI: 12.2 µM
T-47D breast
  GI50: 4.67 µM
  TGI: 14.3 µM
RXF 393 renal
  GI50: 2.76 µM
  TGI: 9.01 µM
UO-31 renal
  GI50: 6.8 µM
  TGI: 20.5 µM
